This experiment has as its target intestinal alkaline phosphatase Alpi (Mus musculus). The experiment can be described thus: mouse IAP inhibition by analogs, SAR follow-up, selectivity assay for human IAP inhibitor project, biochemical, ortholog specificity, luminescence, set 2 (AID 540274). Particulars: purified mouse IAP, CDP-Star luminescence, 30 min.

Calls of active or inactive are those of the source.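 The calls were made as follows: active = mean IC50 below 100 µM; inactive = the rest.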

Usually IC50 stands for the concentration that gives 50% inhibition. Turning to `O=C(CNS(=O)(=O)c1ccc2[nH]c(=O)oc2c1)Nc1ccc2c(c1)OCO2`, the IC50 is 5.05 µM.

As to `O=C(CNS(=O)(=O)c1ccc2[nH]c(=O)oc2c1)NCc1ccc2c(c1)OCO2`, the IC50 was 3.31 µM.

As to `Cc1ccc(C)c(NC(=O)CCNS(=O)(=O)c2ccc3[nH]c(=O)oc3c2)c1`, the IC50 is 0.219 µM.

`COc1ccc(NC(=O)CNS(=O)(=O)c2ccc3[nH]c(=O)oc3c2)cc1OC`: the IC50 is 23 µM.

For the compound `N#Cc1ccc(CNC(=O)CCNS(=O)(=O)c2ccc3[nH]c(=O)oc3c2)cc1`, the IC50 was > 100 µM (inactive).
